Values after ≈ are worked out from the molar mass of the structure shown. Structures can show the parent of a compound that is named as a salt. Where two headings read alike, the source gives them in different places.
Assays:
[1] = format: physicochemical; conditions: radezolid salt forms in HPLC grade water, ambient temperature
B. thetaiotaomicron = assay: microbe, parasite or virus in culture; format: cell-based
G. vaginalis = assay: Broth microdilution MIC; format: cell-based; conditions: Gardnerella vaginalis
B. fragilis = assay: Broth microdilution MIC; format: cell-based; conditions: Bacteroides fragilis, ATCC25285; B. fragilis ATCC 25285
P. granulosum = assay: Broth microdilution MIC; format: cell-based; conditions: P. granulosum ATCC 25746
F. magna = assay: Broth microdilution MIC; format: cell-based; conditions: Finegoldia magna, ATCC15794; F. magna ATCC 15794
S. aureus = assay: Broth microdilution MIC; format: cell-based
[2] = Solubility of salts in water by HPLC; format: physicochemical; conditions: for Solubility at Native pH / Solubility at Adjusted pH: radezolid salts in water by HPLC at 23° C.; for Solubility at Adjusted pH: pH adjusted to ~3.5; for Native pH: supernatant of saturated salt solution in water
Description: In another set of experiments, solubility of various radezolid salts was determined by HPLC. Approximately 1 mL of saturated solution (with excess of solid in solution) of each salt was prepared in water. The mixture was further mixed overnight on a slurry wheel then centrifuged on a desktop centrifuge at maximum speed for ˜5 min. The supernatant was collected, and pH was measured. Solubility was determined at the native pH. Then the pH was adjusted to ˜3.5 with sodium hydroxide solution or an acid solution in which salt was generated. The supernatant was filtered through a 0.2 μm nylon syringe filter and diluted into 0.1% formic acid solution immediately after filtration for HPLC. All HPLC analyses were performed using an Agilent 1100 series liquid chromatograph equipped with a diode array detector, degasser, quaternary pump, and an autosampler. […] The column temperature was set to 30° C., and the detector wavelength was 270 nm with a bandwidth of 8 nm and a reference wavelength of 360 nm. The mobile phase A was 0.1% formic acid in water (HPLC grade), mobile phase B was 0.1% formic acid in methanol (HPLC grade). […] The injection volume was 5 μl.

[3] = Dynamic vapor sorption/desorption (DVS); format: physicochemical; conditions: radezolid salts
Description: Dynamic vapor sorption/desorption (DVS) data were collected on a VTI SGA-100 Vapor Sorption Analyzer. Sorption and desorption data were collected over a range of 5% to 95% relative humidity (RH) at 10% RH intervals under a nitrogen purge. Samples were not dried prior to analysis. Equilibrium criteria used for analysis were less than 0.0100% weight change in 5 minutes, with a maximum equilibration time of 3 hours if the weight criterion was not met. Data were not corrected for the initial moisture content of the samples. Sodium chloride and polyvinylpyrrolidine (PVP) were used as calibration standards.

[4] = Approximate solubility in solvents by aliquot addition; format: physicochemical; conditions: organic solvent or mixture, thermodynamic from solid
Description: Solubilities of the radezolid free base and radezolid HCl salt in various solvents were estimated and are shown in Tables 10 and 11, respectively, below. A weighed sample was treated with aliquots of test solvent at ambient temperature. Complete dissolution of the test material was determined by visual inspection. Solubility was estimated based on the total solvent used to provide complete dissolution. The actual solubility may be greater than the approximate solubility calculated because of the use of solvent aliquots that were too large or due to a slow rate of dissolution. […] If complete dissolution was achieved as a result of only one aliquot addition, the solubility is expressed as “greater than.” The approximate solubilities were rounded to the nearest whole number.

CC(=O)NC[C@H]1CN(c2ccc(-c3ccc(CNCc4cnn[nH]4)cc3)c(F)c2)C(=O)O1 [Acetate]
solubility [1]: <20 µg/mL

CC(=O)NC[C@H]1CN(c2ccc(-c3ccc(CNCc4cnn[nH]4)cc3)c(F)c2)C(=O)O1 [Benzoate]
solubility [1]: <30 µg/mL

CC(=O)NC[C@H]1CN(c2ccc(-c3ccc(CNCc4cnn[nH]4)cc3)c(F)c2)C(=O)O1 [Citrate]
solubility [1]: 2600 µg/mL

C[C@H]1c2cccc(O)c2C(=O)C2=C(O)[C@]3(O)C(=O)C(C(N)=O)=C(O)[C@@H](N(C)C)[C@@H]3[C@@H](O)[C@@H]21 [DOX, doxycycline]
MIC difference relative to radezolid MIC (B. thetaiotaomicron; B. thetaiotaomicron, doxycycline: more potent than radezolid): 4 fold
MIC (B. thetaiotaomicron; Bacteroides thetaiotaomicron, ATCC29741, read-out: MIC, broth microdilution): 2 µg/mL (≈ 4.5 µM)
MIC (G. vaginalis; ATCC14018, G. vaginalis ATCC 14018): 0.5 µg/mL (≈ 1.13 µM)
MIC (G. vaginalis; ATCC49145, G. vaginalis ATCC 49145): 32 µg/mL (≈ 72 µM)
MIC (B. fragilis): ≤ 0.06 µg/mL
MIC (P. granulosum): 0.25 µg/mL (≈ 0.563 µM)
MIC (F. magna): 0.125 µg/mL (≈ 0.281 µM)
MIC difference relative to radezolid MIC (S. aureus; S. aureus, doxycycline and clindamycin: MICs lower than radezolid): 4 fold
MIC (S. aureus; Staphylococcus aureus, ATCC29213, S. aureus ATCC 29213): 0.5 µg/mL (≈ 1.13 µM)

CC(=O)NC[C@H]1CN(c2ccc(-c3ccc(CNCc4cnn[nH]4)cc3)c(F)c2)C(=O)O1 [Esylate, Radezolid Esylate Salt]
Solubility at Native pH [2]: 53.8 mg/mL
Solubility at Adjusted pH [2]: 61.7 mg/mL
Native pH [2]: 4.0
DVS desorption: weight loss from 95 to 5% RH [3]: Desorption: 2.999% weight loss
DVS sorption: weight gain from 5 to 95% RH [3]: 2.930% weight gain from 5 to
DVS sorption: weight loss upon equilibration at 5% RH [3]: Sorption: 0.22% weight loss

CC(=O)NC[C@H]1CN(c2ccc(-c3ccc(CNCc4cnn[nH]4)cc3)c(F)c2)C(=O)O1 [Ethane-1,2-disulfonate, Radezolid Ethanedisulfonate Salt]
Solubility at Native pH [2]: >133.2 mg/mL
Solubility at Adjusted pH [2]: >116.9 mg/mL
Native pH [2]: 2.0
DVS desorption: weight loss from 95 to 5% RH [3]: Desorption: 2.388% weight loss
DVS sorption: weight gain from 5 to 95% RH [3]: 2.355% weight gain from 5 to
DVS sorption: weight loss upon equilibration at 5% RH [3]: Sorption: 0.017% weight loss

CC(=O)NC[C@H]1CN(c2ccc(-c3ccc(CNCc4cnn[nH]4)cc3)c(F)c2)C(=O)O1 [Fumarate]
solubility [1]: 2600 µg/mL

CC(=O)NC[C@H]1CN(c2ccc(-c3ccc(CNCc4cnn[nH]4)cc3)c(F)c2)C(=O)O1 [Hydrochloride, (5S)—N-[3-(2-Fluoro-4′-{[(1H-[1,2,3]triazol-4-ylmethyl)-amino]-methyl}-biphenyl-4-yl)-2-oxo-oxazolidin-5-ylmethyl]-acetamide chloride]
solubility ([4]; 1-butanol, Table 11: 1-Butanol, material never went into solution): < 2000 µg/mL
solubility ([4]; 2,2,2-trifluoroethanol (TFE), Table 11: 2,2,2-trifluoroethanol (TFE)): ≥ 6000 µg/mL
solubility ([4]; 2-butanone, Table 11: 2-Butanone, material never went into solution): < 2000 µg/mL
solubility ([4]; 2-propanol, Table 11: 2-Propanol, material never went into solution): < 2000 µg/mL
solubility ([4]; HFIPA/THF, Table 11: HFIPA/THF): ≥ 74000 µg/mL
solubility ([4]; HFIPA/dioxane (9:1), Table 11: HFIPA/Dioxane (9:1)): ≥ 52000 µg/mL
solubility ([4]; HFIPA/ethanol (5:1), Table 11: HFIPA/Ethanol (5:1)): ≥ 80000 µg/mL
solubility ([4]; dioxane, Table 11: Dioxane, material never went into solution): < 2000 µg/mL
solubility ([4]; ethanol, Table 11: Ethanol, material never went into solution): < 2000 µg/mL
solubility ([4]; hexafluoroisopropanol (HFIPA), Table 11: Hexafluoroisopropanol (HFIPA)): ≥ 225000 µg/mL
solubility ([4]; methanol, Table 11: Methanol, material never went into solution): < 2000 µg/mL
solubility ([4]; propionitrile, Table 11: Propionitrile, material never went into solution): < 2000 µg/mL
solubility ([4]; tert-butanol, Table 11: Tert-butanol, material never went into solution): < 5000 µg/mL
solubility ([4]; tetrahydrofuran (THF), Table 11: Tetrahydrofuran (THF), material never went into solution): < 2000 µg/mL
solubility [1]: <30 µg/mL
Solubility at Adjusted pH ([2]; listed as HCl Salt): 2.0 mg/mL
Native pH ([2]; listed as HCl Salt): 4.6
DVS desorption: weight loss from 95 to 5% RH [3]: Desorption: 0.069% weight loss
DVS sorption: weight gain from 5 to 95% RH [3]: 0.064% weight gain from 5 to
DVS sorption: weight gain upon equilibration at 5% RH [3]: Sorption: 0.03% weight gain

CC(=O)NC[C@H]1CN(c2ccc(-c3ccc(CNCc4cnn[nH]4)cc3)c(F)c2)C(=O)O1 [Lactate]
solubility [1]: <20 µg/mL

CC(=O)NC[C@H]1CN(c2ccc(-c3ccc(CNCc4cnn[nH]4)cc3)c(F)c2)C(=O)O1 [Maleate]
solubility [1]: 2300 µg/mL

CC(=O)NC[C@H]1CN(c2ccc(-c3ccc(CNCc4cnn[nH]4)cc3)c(F)c2)C(=O)O1 [Mesylate, Radezolid Mesylate Salt]
Solubility at Adjusted pH ([2]; Mesylate Salt): 18.0 mg/mL
Solubility at Native pH ([2]; Mesylate Salt): 18.6 mg/mL
Native pH ([2]; Mesylate Salt): 4.1
DVS desorption: weight loss from 95 to 5% RH ([3]; Mesylate Salt): Desorption: 0.835% weight loss
DVS sorption: weight gain from 5 to 95% RH ([3]; Mesylate Salt): 1.025% weight gain from 5 to
DVS sorption: weight loss upon equilibration at 5% RH ([3]; Mesylate Salt): Sorption: 0.114% weight loss

CC(=O)NC[C@H]1CN(c2ccc(-c3ccc(CNCc4cnn[nH]4)cc3)c(F)c2)C(=O)O1 [Phosphate]
solubility [1]: 1100 µg/mL

CC(=O)NC[C@H]1CN(c2ccc(-c3ccc(CNCc4cnn[nH]4)cc3)c(F)c2)C(=O)O1 [Salicylate]
solubility [1]: <30 µg/mL

CC(=O)NC[C@H]1CN(c2ccc(-c3ccc(CNCc4cnn[nH]4)cc3)c(F)c2)C(=O)O1 [Succinate]
solubility [1]: <30 µg/mL

CC(=O)NC[C@H]1CN(c2ccc(-c3ccc(CNCc4cnn[nH]4)cc3)c(F)c2)C(=O)O1 [Sulfate, Radezolid Sulfate Salt]
Solubility at Adjusted pH ([2]; Sulfate Salt): 3.3 mg/mL
Solubility at Native pH ([2]; Sulfate Salt): 4.0 mg/mL
Native pH ([2]; Sulfate Salt): 1.9
DVS desorption: weight loss from 95 to 5% RH ([3]; Sulfate Salt): Desorption: 11.504% weight loss
DVS sorption: weight gain from 5 to 95% RH ([3]; Sulfate Salt): 11.527% weight gain from 5 to
DVS sorption: weight loss upon equilibration at 5% RH ([3]; Sulfate Salt): Sorption: 0.654% weight loss

CC(=O)NC[C@H]1CN(c2ccc(-c3ccc(CNCc4cnn[nH]4)cc3)c(F)c2)C(=O)O1 [Tartrate]
solubility [1]: 1800 µg/mL

CC(=O)NC[C@H]1CN(c2ccc(-c3ccc(CNCc4cnn[nH]4)cc3)c(F)c2)C(=O)O1 [Tosylate, Radezolid Tosylate Salt]
Solubility at Adjusted pH ([2]; Tosylate Salt): 0.4 mg/mL
Solubility at Native pH ([2]; Tosylate Salt): 0.9 mg/mL
Native pH ([2]; Tosylate Salt): 5.1
DVS desorption: weight loss from 95 to 5% RH ([3]; Tosylate Salt): Desorption: 0.435% weight loss
DVS sorption: weight gain from 5 to 95% RH ([3]; Tosylate Salt): 0.435% weight gain from 5 to
DVS sorption: weight loss upon equilibration at 5% RH ([3]; Tosylate Salt): Sorption: 0.070% weight loss

From patent US10471046B2, “Method for treating, preventing, or reducing the risk of skin infection” (Melinta Subsidiary Corp., priority 2014, dated 2019)
